Data taken from the supplement of paper PMC10307832.

Columns and labels:
Test in all cases: relative viability (nuclei count vs DMSO), 5 days (fraction); higher = more cells survive
[1] = compound: CCC1=CN=CN=C1N2CCN(CC2)CC3=NC4=C(N3)C=C(C=C4)C(F)(F)F + CS(=O)(=O)CCNCc1ccc(-c2ccc3ncnc(Nc4ccc(OCc5cccc(F)c5)c(Cl)c4)c3c2)o1 [Lapatinib] (partner 2 µM)
How it was run: (§1)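 Relative viability divides the nuclei count in treated wells by that in vehicle wells. Lung cancer cell lines were seeded in 1536-well plates, dosed by pin tool the next day, and fixed and stained after 5 days in one step with final 0.05% Triton X-100, 1% formaldehyde and 1 ug/ml Hoechst. Dosing was a single drug or a fixed anchor-drug dose plus five library-drug doses (not always all listed) in √10 steps, and values are medians of duplicate plates imaged at 4×.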

[2] = compound: CCC1=CN=CN=C1N2CCN(CC2)CC3=NC4=C(N3)C=C(C=C4)C(F)(F)F + NC(=O)Nc1cc(-c2cccc(F)c2)sc1C(=O)N[C@H]1CCCNC1 [AZD7762] (partner 0.2 µM)
How it was run: as §1

Mirin + Trametinib = compound: N=C1NC(=O)/C(=C/c2ccc(O)cc2)S1 [Mirin] + CC(=O)Nc1cccc(-n2c(=O)n(C3CC3)c(=O)c3c(Nc4ccc(I)cc4F)n(C)c(=O)c(C)c32)c1 [Trametinib] (partner 0.02 µM)
How it was run: as §1

Mirin + Olaparib = compound: N=C1NC(=O)/C(=C/c2ccc(O)cc2)S1 [Mirin] + O=C(c1cc(Cc2n[nH]c(=O)c3ccccc23)ccc1F)N1CCN(C(=O)C2CC2)CC1 [Olaparib] (partner 8 µM)
How it was run: as §1

Cell Line | relative viability ([1]; first compound 0.04 µM) | relative viability ([1]; first compound 0.1265 µM) | relative viability ([1]; first compound 0.4 µM) | relative viability ([1]; first compound 1.265 µM) | relative viability ([1]; first compound 4 µM) | relative viability ([2]; first compound 0.04 µM) | relative viability ([2]; first compound 0.1265 µM) | relative viability ([2]; first compound 0.4 µM) | relative viability ([2]; first compound 1.265 µM) | relative viability ([2]; first compound 4 µM) | relative viability (Mirin + Trametinib; first compound 0.25 µM) | relative viability (Mirin + Trametinib; first compound 0.7906 µM) | relative viability (Mirin + Trametinib; first compound 2.5 µM) | relative viability (Mirin + Trametinib; first compound 7.906 µM) | relative viability (Mirin + Trametinib; first compound 25 µM) | relative viability (Mirin + Olaparib; first compound 0.25 µM) | relative viability (Mirin + Olaparib; first compound 0.7906 µM) | relative viability (Mirin + Olaparib; first compound 2.5 µM) | relative viability (Mirin + Olaparib; first compound 7.906 µM) | relative viability (Mirin + Olaparib; first compound 25 µM)
HCC-15 | 0.847 | 0.814 | 0.839 | 0.828 | 0.865 | 1.3 | 1.11 | 1.1 | 1.32 | 1.32 | 0.341 | 0.368 | 0.363 | 0.368 | 0.365 | 0.718 | 0.675 | 0.73 | 0.536 | 0.502
HCC-44 | 0.932 | 0.956 | 0.975 | 1.05 | 0.85 | 1.04 | 0.946 | 0.977 | 1.13 | 0.986 | 0.981 | 1.36 | 1.08 | 1.06 | 1.09 | 0.99 | 1.11 | 0.97 | 0.964 | 1.1
HCC-78 | 0.458 | 0.363 | 0.726 | 0.548 | 0.463 | 0.564 | 0.559 | 0.668 | 0.525 | 0.631 | 0.647 | 0.715 | 0.885 | 0.709 | 0.72 | 0.786 | 0.628 | 0.718 | 0.852 | 0.732
HCC-366 | 1.01 | 1.05 | 0.988 | – | 1.13 | 0.33 | 0.256 | 0.219 | 0.226 | 0.302 | 0.382 | 0.348 | 0.33 | 0.337 | 0.28 | 0.377 | 0.376 | 0.346 | 0.426 | 0.335
HCC-827 | 0.201 | 0.182 | 0.184 | 0.165 | 0.178 | 0.186 | 0.233 | 0.208 | 0.196 | 0.174 | 0.529 | 0.471 | 0.584 | 0.607 | 0.547 | 0.627 | 0.704 | 0.647 | 0.626 | 0.623
HOP-62 | 1.14 | 1.06 | 0.979 | 0.971 | 1.07 | 0.491 | 0.439 | 0.602 | 0.558 | 0.746 | 0.369 | 0.447 | 0.355 | 0.491 | 0.398 | 0.548 | 0.409 | 0.219 | 0.381 | 0.519
LC-2-ad | 1.07 | 0.898 | 0.899 | 0.945 | 0.925 | 0.87 | 0.807 | 0.823 | 0.81 | 0.804 | 0.964 | 1.06 | 0.979 | 0.906 | 0.945 | 0.743 | 0.757 | 0.706 | 0.784 | 0.733
LCLC-97TM1 | 1.02 | 0.697 | 0.828 | 0.877 | 0.8 | 0.263 | 0.206 | 0.22 | 0.309 | 0.274 | 0.172 | 0.179 | 0.235 | 0.176 | 0.165 | 0.386 | 0.413 | 0.486 | 0.244 | 0.166
LK-2 | 0.947 | 0.797 | 0.838 | 0.498 | 0.985 | 0.414 | 0.476 | 0.353 | 0.209 | 0.466 | 0.653 | 0.577 | 0.609 | 0.421 | 0.42 | 0.629 | 0.454 | 0.695 | 0.489 | 0.546
LOU-NH91 | 0.761 | 0.794 | 0.77 | 0.644 | 0.844 | 0.758 | 0.743 | 0.72 | 0.634 | 0.831 | 0.789 | 0.809 | 0.795 | 0.823 | 1.01 | 0.927 | 0.976 | 0.946 | 0.943 | 1.09
LU99A | 0.964 | 0.989 | 0.95 | 0.926 | 0.948 | 0.41 | 0.301 | 0.34 | 0.359 | 0.403 | 0.515 | 0.496 | 0.56 | 0.395 | 0.55 | 0.297 | 0.206 | 0.288 | 0.228 | 0.165
LXF-289 | 1 | 0.853 | 0.845 | 0.974 | 0.899 | 1.3 | 1.01 | 1.1 | 1.29 | 1.05 | 0.694 | 0.726 | 0.635 | 0.665 | 0.828 | 1.04 | 1.04 | 1 | 1.04 | 0.975
NCI-H23 | 1.2 | 1.21 | 0.966 | 0.982 | 1.11 | 0.25 | 0.202 | 0.162 | 0.229 | 0.325 | 0.358 | – | 0.384 | 0.279 | 0.298 | 0.317 | – | 0.342 | 0.248 | 0.377
NCI-H322M | 0.631 | 0.571 | 0.575 | 0.499 | 0.682 | 0.538 | 0.591 | 0.572 | 0.511 | 0.653 | 0.497 | 0.506 | 0.555 | 0.564 | 0.571 | 0.81 | 0.816 | 0.726 | 0.712 | 0.583
NCI-H358 | 0.477 | 0.399 | 0.428 | 0.337 | 0.387 | 0.614 | 0.436 | 0.453 | 0.51 | 0.485 | 0.123 | 0.146 | 0.163 | 0.11 | 0.13 | 0.6 | 0.86 | 0.584 | 0.487 | 0.601
NCI-H460 | 1.09 | 0.973 | 0.878 | 0.812 | 0.936 | 0.622 | 0.528 | 0.619 | 0.578 | 0.6 | 0.142 | 0.172 | 0.206 | 0.102 | 0.171 | 0.505 | 0.447 | 0.438 | 0.413 | 0.557
